Measured values reported in patent publication US7745426B2, “Compositions and methods for reducing the risk of epileptic occurrence and/or for treatment of seizure disorders” (D-Pharm Ltd., priority 2003, dated 2010).
Structures can show the parent of a compound that is named as a salt.

What was measured:
Assay type in all cases: in vivo
[1] = tested on: epilepsy-prone (EP) subline of BALB/c mice, PTZ-induced convulsions; test: PTZ-induced convulsive reaction in genetically epilepsy-prone (EP) mice, compounds given i.p.; settings: for anticonvulsive effect against PTZ-induced convulsive reaction (FIG. 1): 10 mg/kg i.p. 30 minutes prior to PTZ i.p., recorded 30 min
Protocol: The animal model used is epilepsy-prone (EP) subline of mice that was selectively bred from a strain of BALB/c mice (Dolina et al. in Epilepsia (1993) 43: 33-42).
EP mice were subjected to seizure induction by intraperitoneal (i.p.) injection of pentylenetetrazol (PTZ) 50-60 mg/kg dissolved in saline. The EP animals were i.p. treated with the tested compound(s) 10 to 60 minutes prior to the PTZ injection.
The tested compounds were the following: • 1) NC-001 10 mg/kg • 2) Pyridoxine hydrochloride (=Vitamin B6) 10 mg/kg • 3) GABA 10 mg/kg • 4) Separately injected Vitamin B6 and GABA, 10 mg/kg each. A group of EP animals injected with PTZ only, with no further treatment, served as a control group.
The intensity of the PTZ-induced convulsive reaction for each group was evaluated in scores according to the following scale:
(§1) Intensity of PTZ-induced Convulsive Reaction in Scores • 1. A few myoclonic jerks (less than 10) • 2. Less than 20 jerks • 3. Less than 30 jerks • 4. 30-40 jerks/jerks and jumps/short partial convulsions. • 5. Uninterrupted jerks/series of jerks and jumps/repeated partial convulsions • 5.5 Abortive generalized convulsions • 6. Single generalized convulsive attack • 7. Series of jerks, jumps & single generalized convulsive attack; single generalized convulsions with further motor excitation • 7.5 Severe prolonged generalized convulsions • 8. Repeated generalized convulsions • 9. Series of jerks/jumps & repeated convulsions • 10. Status epilepticus • 12. Lethal convulsions
In each group of EP animals, convulsive reactions were recorded during the first 30 minutes following administration of the seizure inducer.
Genetically epilepsy-prone (EP) BALB/c mice, 3-5 animals in a group, were i.p. administered with either 5 mg/kg, 7.5 mg/kg or 10 mg/kg of NC-001 thirty minutes prior to i.p. injection of PTZ (60 mg/kg). The numbers of seizures were then recorded for each animal during 30 minutes following the PTZ injection. The intensity of convulsive reaction was scored for each of the treatment groups.

[2] = tested on: epilepsy-prone (EP) mice, PTZ-induced convulsions; test: PTZ-induced convulsive reaction in EP mice, NC-001 orally administered; settings: 30 mg/kg orally 30 min prior to PTZ 50 mg/kg i.p.; four female EP mice vs eight vehicle
From the text: as §1
In order to test the ability of the vitamin B6-GABA conjugated compound to cross the GI barrier, epilepsy-prone (EP) mice were orally administered with NC-001.
A group of 12 female EP mice were i.p. treated with 50 mg/kg PTZ to induce seizures. Thirty minutes prior to PTZ administration, NC-001 at the dose of 30 mg/kg was orally administered to four of the animals (=treated group), the other eight animals were treated with vehicle only and served as a control group. All twelve animals were scored, during 30 minutes following i.p. PTZ administration, for intensity of convulsive reactions (see table of convulsive reaction scores as appear above in Example 4).

[3] = tested on: audiogenic sensitive rats, sound-induced convulsions; test: Sound-induced convulsions in audiogenic sensitive rats chronically treated with PHT with or without pyridoxine; settings: 100 db sound
From the text: Phenyloin (PHT) is prescribed for medication of generalized […] generalized convulsions, complex partial seizures and simple partial seizures. […] In the experiments, intensity of 100 db sound stimulation was used. […] The second group included pyridoxine-untreated rats. […] Eleven rats were used in each group.

[4] = EP mice, 10 mg/kg i.p. 30 minutes prior to PTZ, six tested mice

NCCCC(=O)O [GABA, γ-aminobutyric acid, reference compound]
anticonvulsive effect against PTZ-induced convulsive reaction (FIG. 1) ([1]; EP mice): did not show any anticonvulsive effect

Cc1ncc(COC(=O)CCCN)c(CO)c1O [NC-001, [5-Hydroxy-6-methyl-4-(hydroxymethyl)-pyrid-3-yl]methyl-4-aminobutyrate, dihydrochloride]
EP mice that exhibited generalized convulsions ([1]; 5 mg/kg i.p. 30 min prior to PTZ 60 mg/kg i.p., FIG. 2): two of the four | effect on generalized PTZ-induced convulsions ([1]; 7.5 mg/kg i.p. 30 min prior to PTZ 60 mg/kg i.p., three EP mice, numerous jerks in all, FIG. 2): prevented generalized PTZ-induced convulsions in all three treated EP mice | effect on generalized convulsive reactions ([1]; 10 mg/kg i.p. 30 min prior to PTZ 60 mg/kg i.p., single jerks in one mouse, FIG. 2): completely prevented generalized convulsive reactions | dose dependence of anti-convulsive effect ([1]; 5, 7.5, 10 mg/kg i.p., PTZ 60 mg/kg, FIG. 2): dose-dependent anti-convulsive protective effect | anticonvulsive effect against PTZ-induced convulsive reaction (FIG. 1) ([1]; EP mice): almost a complete protection against the convulsive symptoms | animals that had only few convulsive jerks [1, 4]: two | mice that did not show any convulsive reaction [1, 4]: Four out of the six | protective effect, intensity of convulsive reactions (FIG. 3) [2]: significant protective effect

O=C1NC(=O)C(c2ccccc2)(c2ccccc2)N1 [PHT, 5,5-Diphenyl-2,4-imidazolidinedione]
number of tests with sound-induced convulsive reactions ([3]; 22 tests per group, chronic PHT, days 13 and 14): 6 | tests resulting in sound-induced convulsions (percent of 22 tests) ([3]; PHT 75 mg/kg then 12 x 50 mg/kg once a day, tested days 13 and 14, 11 rats per group): 27.3%

Cc1ncc(CO)c(CO)c1O.Cl [Vitamin B6, Pyridoxine hydrochloride, reference compound]
anticonvulsive effect against PTZ-induced convulsive reaction (FIG. 1) ([1]; EP mice): some protection against PTZ-induced generalized convulsions
